We go through five compounds from patent US20040248914A1, “Method for the treatment of overactive bladder” (priority 2001, published 2004).

One experiment addresses T1, human NK1 receptors (Homo sapiens, UniProt P25103).
T1 construct: expressed in transfected cells; host or cells: MEL cells (membranes)
Description: In vitro receptor binding assay, [3H]SP in MEL cell membranes expressing cloned human NK1 receptors. As to conditions: for Ki: inhibition of [3H]SP binding to cloned hNK1 receptors in MEL cell membranes, read-out: hNK1 (Ki expressed as -Log Molar) (converted). As for the experimental part:
(§1) Preparation of Membranes from MEL Cells Transfected with Cloned Human NK1 or NK2 Receptors:
(§2) The cloning of the human lung NK1 and NK2 receptors was achieved as described by Hopkins, et al., Biochem. Biophys. Res. Commun. 180: 1110-1117 (1991), and Graham, et al., Biochem. Biophys. Res. Commun. 177: 8-16 (199.1). Heterologous expression and scale-up growth of MEL cells transfected with human tachykinin receptors was performed as described for NK2 receptors by Aharony, et al., Mol. Pharmacol. 45: 9-19, 1994.
(§3) Membranes from recombinant MEL cells expressing NK1 or NK2 receptors were prepared as described by Hopkins, et al., (1991). Briefly, cells were homogenized at 4° C. (Brinkman PT-20 Polytron, setting 3, with one 15 sec burst on ice), in a buffer consisting of 50 mM Tris-HCl (pH7.4), 5 mM KCl, 120 mM NaCl, 10 mM EDTA and containing several protease inhibitors (1 mM phenylmethylsulfonylfluoride; 0.1 mg/ml soybean trypsin inhibitor, and 1 mM iodoacetamide). The homogenate was centrifuged at 1200×g for 45 min at 4° C. to remove cell debris. The supernatant was centrifuged at 48,000×g for 45 min at 4° C. The pellet was resuspended with a glass-Teflon motorized homogenizer in 30 volumes of ice-cold 50 mM Tris-HCl (pH 7.4) buffer.
(§4) Ligand binding assays with [^3H]NKA in MEL cells expressing cloned NK2 receptors or (^3H]SP in MEL cells expressing cloned NK1 receptors, were conducted generally as described by Aharony, et al., Mol. Pharmacol. 45: 9-19, 1994, Aharony, et al., Neuropeptides 23: 121-130 (1992) and Aharony, et al., J. Pharmacol. Exp. Ther. 259: 146-155 (1991). In brief, incubations were carried out in assay buffer containing membranes, test compounds, and [^3H] ligand (1.0-1.5 nM). In competition experiments, mixtures (0.315 mL) containing various concentrations of competing agents (agonists, antagonists, or vehicle), were incubated at 25° C. for 30 min., with or without 1 μM unlabeled homogenous ligand (NKA or SP), to define non-specific binding. Reactions were initiated by adding membranes (0.1-0.15 mg protein/final concentration) and were conducted in duplicate. Saturation and kinetic experiments were conducted in triplicate. Separation of receptor-bound and free ligand was accomplished by dilution with 1 mL of wash buffer (20 mM Tris-HCl, pH 7.5) followed immediately by vacuum filtration with a total volume of 10 mL of wash buffer (utilizing a Brandel Cell Harvester MB-48R with Whatman GF/B filters presoaked in 0.1% polyethylenimine).
(§5) The ability of compounds disclosed herein to inhibit the binding of [^3H] ligand is shown by the results disclosed in Table 1.

The target in a further experiment is T2, human NK2 receptors (Homo sapiens, UniProt P21452).
T2 construct: expressed in transfected cells; host or cells: MEL cells (membranes)
T2 sequence (P21452 1-398): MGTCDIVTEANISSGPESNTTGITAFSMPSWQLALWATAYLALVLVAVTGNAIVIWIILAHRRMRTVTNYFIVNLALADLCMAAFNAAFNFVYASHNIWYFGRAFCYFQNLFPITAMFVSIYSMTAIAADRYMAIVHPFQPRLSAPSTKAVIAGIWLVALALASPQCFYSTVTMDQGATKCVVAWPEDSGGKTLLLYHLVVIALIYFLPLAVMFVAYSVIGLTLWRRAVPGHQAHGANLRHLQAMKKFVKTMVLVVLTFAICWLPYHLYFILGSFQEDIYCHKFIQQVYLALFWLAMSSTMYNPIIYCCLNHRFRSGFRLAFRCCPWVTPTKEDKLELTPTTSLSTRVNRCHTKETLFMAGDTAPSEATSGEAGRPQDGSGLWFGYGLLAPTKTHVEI
The experiment is described as follows: In vitro receptor binding assay, [3H]NKA in MEL cell membranes expressing cloned human NK2 receptors. As to conditions: inhibition of [3H]NKA binding to cloned hNK2 receptors in MEL cell membranes; read-out: hNK2 (Ki expressed as -Log Molar) (converted). As to the method: as §1, §2, §3, §4, §5

Experiment [1] concerns BANK-mediated GP bladder contraction. The experiment is described as follows: BANK-induced bladder contraction in anesthetized guinea pigs. In kind it is in vivo, guinea pig. As to conditions: for Inhibition of BANK-mediated GP bladder contraction (% Inhibition mediated by 52 nmol/kg administered orally): anesthetized female guinea pigs, 52 nmol/kg by gavage 1 hr before BANK, mean ± S.E.M. As to the method:
BANK-Induced Bladder Contraction in Anesthetized Guinea Pigs:
Female guinea pigs (300-450 g) were anesthetized by intramuscular administration of ketamine/xylazine mixture (3/10 mg/kg, respectively). The jugular vein was catheterized and the distal end of the catheter connected to a syringe for administration of compound where appropriate. Subsequently, the bladder was exposed through a midline abdominal incision, the ureters tied with 4-0 silk suture approximately 2 cm above the bladder, and cut above the ligature to allow drainage from the kidneys. Cannula were passed through the proximal urethra and bladder sphincter into the bladder lumen. The bladder was manually emptied, infused with 0.3 mL saline, and the catheter attached to a Gould p23 ID pressure transducer for recording changes in bladder pressure. An equilibration period of approximately 15 min was allowed for stabilization of the animals following surgical preparation. Thiorphan (10 mg/kg iv) was administered 15 minutes before agonist exposure to inhibit neutral endopeptidase 3.4.24.11.
To establish the oral effect of test compounds, animals were administered the test compounds (52 nmol/kg, 5% PEG 400-saline vehicle) by gavage 1 hr before administration of BANK. Changes in bladder contraction occurring in the presence and absence of test compound were recorded as an increase in intravesical bladder pressure on a Grass 7D Polygraph and expressed as the precentage change in response. Duration of action studies were performed following oral administration of test compounds (52 nmol/kg, 5% PEG 400-saline vehicle) at different times prior to administration of BANK. Responses were calculated as the percentage difference between the response to BANK in the presence of test compound compared with sham-treated controls. For all studies, each animal was administered a single dose of test compound. Experimental results were expressed as the mean plus or minus the Standard Error of the Mean (±S.E.M) percentage change from basal level.
The ability of compounds disclosed herein to inhibit bladder contractions induced with BANK is shown by the results disclosed in Table 1.

“And” between values parts separate entries of the source, which are not always exact repeats. Equal entries are not always repeated.

T1 sequence (P25103 whole entry): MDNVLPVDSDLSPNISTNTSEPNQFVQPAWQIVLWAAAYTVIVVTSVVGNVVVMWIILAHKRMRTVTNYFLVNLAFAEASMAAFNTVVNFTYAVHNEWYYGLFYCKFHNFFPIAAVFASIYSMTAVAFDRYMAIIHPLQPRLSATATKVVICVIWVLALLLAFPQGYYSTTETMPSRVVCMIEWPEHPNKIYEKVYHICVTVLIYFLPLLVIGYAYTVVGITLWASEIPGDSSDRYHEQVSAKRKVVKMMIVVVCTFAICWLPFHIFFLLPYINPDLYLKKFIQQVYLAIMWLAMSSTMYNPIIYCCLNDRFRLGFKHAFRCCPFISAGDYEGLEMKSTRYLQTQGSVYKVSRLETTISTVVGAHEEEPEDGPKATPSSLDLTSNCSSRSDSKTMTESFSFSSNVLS

As to `CN(C[C@@H](CCN1CCC(N2CC(C)(C)CNC2=O)CC1)c1ccc(Cl)c(Cl)c1)C(=O)c1ccccc1` [Example 1, (S)-N-[2-(3,4-Dichlorophenyl)-4-[4-(2-oxo-5,5-dimethyl-perhydropyrimidin-1-yl)piperidino]butyl]-N-methylbenzamide], 10 µM produced 90% inhibition at human NK1 receptors (at 10 μM, [3H]SP binding, cloned hNK1 receptors). Further, on human NK2 receptors, the inhibitory constant (Ki) (usually a dissociation constant, usually derived from enzyme kinetics or from competition with a known ligand) was 0.55 nM. Moreover, the “Inhibition of BANK-mediated GP bladder contraction (% Inhibition mediated by 52 nmol/kg administered orally)” value in experiment [1] stood at 27 ± 13%.
For `CCN1CCCN(C2CCN(CC[C@H](CN(C)C(=O)c3ccccc3)c3ccc(Cl)c(Cl)c3)CC2)C1=O.O=C(O)CC(O)(CC(=O)O)C(=O)O` [Example 2, (S)-N-[2-(3,4-Dichlorophenyl)-4-[4-(3-ethyl-2-oxoperhydro-pyrimidin-1-yl)-piperidino]butyl]-N-methylbenzamide citrate], the results for the Ki at human NK1 receptors and at human NK2 receptors were 112 nM and 0.245 nM, respectively. Also, the “Inhibition of BANK-mediated GP bladder contraction (% Inhibition mediated by 52 nmol/kg administered orally)” value in experiment [1] was 26 ± 16%.
As to `CCN(C[C@@H](CCN1CCC(N2CCCNC2=O)CC1)c1ccc(Cl)c(Cl)c1)C(=O)c1ccccc1` [Example 3, (S)-N-{2-(3,4-Dichloro-phenyl)-4-[4-(2-oxo-tetrahydro-pyrimidin-1-yl)-piperidin-1-yl]-butyl}-N-ethyl-benzamide free base], the Ki at human NK1 receptors is 66.1 nM; at human NK2 receptors, 1.41 nM. Moreover, the “Inhibition of BANK-mediated GP bladder contraction (% Inhibition mediated by 52 nmol/kg administered orally)” value in experiment [1] was 64% and 64 ± 6%.
Regarding `CN(C[C@@H](CCN1CCC(N2CCCNC2=O)CC1)c1ccc(Cl)c(Cl)c1)C(=O)c1ccc(F)cc1.O=C(O)CC(O)(CC(=O)O)C(=O)O` [Example 4, (S)-N-[2-(3,4-Dichlorophenyl)-4-[4-(2-oxoperhydro-pyrimidin-1-yl)piperidino]butyl]-4-fluoro-N-methylbenzamide citrate], the inhibition constant (Ki) on human NK1 receptors is 61.7 nM; on human NK2 receptors, 1.74 nM. The “Inhibition of BANK-mediated GP bladder contraction (% Inhibition mediated by 52 nmol/kg administered orally)” value in experiment [1] is on record as 55 ± 11%.
Consider `CN(C[C@@H](CCN1CCC(N2CCCNC2=S)CC1)c1ccc(Cl)c(Cl)c1)C(=O)c1ccccc1.Cl.Cl` [Example 5, (S)-N-[2-(3,4-Dichlorophenyl)-4-[4-(2-thioxoperhydro-pyrimidin-1-yl)-piperidino]butyl]-N-methylbenzamide dihydrochloride], for which the values for the inhibitory constant (Ki) at human NK1 receptors and on human NK2 receptors were 251 nM and 1.38 nM, respectively. Also, in experiment [1], the “Inhibition of BANK-mediated GP bladder contraction (% Inhibition mediated by 52 nmol/kg administered orally)” value is −9 ± 39%. The “Effect on bladder contraction induced by BANK (in words)” value in experiment [1] (guinea pig, BANK-induced bladder contraction) is on record as “increase the bladder contraction induced by BANK”.
